{"source": "patent US20170224670A1", "about": "“Drug Combination to Treat Melanoma” (Exelixis, Inc., priority 2014, published 2017)", "origin": "cited, not measured here", "system": "BRAF mutation-associated melanomas", "details": "from initial use, patients taking the drug", "data": [{"smiles": "CCCS(=O)(=O)Nc1ccc(F)c(C(=O)c2c[nH]c3ncc(-c4ccc(Cl)cc4)cc23)c1F", "note": "[vemurafenib]", "values": [{"measurement": "Time to development of resistance, on average", "value": "≤ 7", "unit": "months"}]}]}
